Measured values reported in PMC13266999, “Designing Antibiotics with Inherent Resistance to Efflux as a Strategy to Revive Discovery against Multidrug-Resistant Pathogens” (Journal of Medicinal Chemistry, 2026).
≈ marks a conversion by molar mass, not a printed value. Read-outs that look alike come from different tables or passages of the source.

How the values were obtained:
[1] = male, ICR, mouse, in vivo, po
[2] = tested on: major human CYP isoforms other than CYP3A (midazolam substrate); assay: Cytochrome P450 inhibition panel; conditions: human recombinant CYP enzymes in microsomal preparations
Description: Cytochrome P450 inhibition was assessed in vitro using human recombinant enzymes in microsomal preparations. […] Enzyme activity was quantified by monitoring formation of substrate-specific metabolites, and percent inhibition was calculated relative to vehicle control.

[3] = tested on: A. baumannii strain AYE; assay: Time-kill assay; type: cell-based; conditions: 4 × MIC
Description: Time-kill assays were performed as defined previously.

[4] = tested on: E. faecalis; assay: MIC (microbroth dilution); type: cell-based, Enterococcus faecalis; conditions: for MIC: Enterococcus faecalis
Method in brief: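 Broth microdilution MICs, defined as lowest compound level without visible growth (OD600 read), on bacteria grown overnight to stationary phase then diluted. Twofold compound dilutions; some wells also received PMBN, final 30 μg/mL, to permeabilize the outer membrane.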

[5] = tested on: S. haemolyticus; assay: MIC (microbroth dilution); type: cell-based, Staphylococcus haemolyticus; conditions: Staphylococcus haemolyticus, ATCC29970; ATCC 29970; read-out: MIC
Description: (§1) All bacteria were maintained on tryptic soy agar (TSA), except Streptococcus spp., which were maintained on Columbia agar plates containing 5% horse blood. All bacterial assays were carried out in tryptic soy broth (TSB), except for Streptococcus spp. which were grown in cation-adjusted Mueller Hinton broth containing 2.5% lysed horse blood. Bacteria were grown to stationary phase in liquid culture overnight, with shaking at 200 rpm, before being back diluted to the relevant starting concentration for each assay below. MICs were measured by the microbroth dilution method. […] Absorbance at OD600 was read on a CLARIOstar spectrophotometer (BMG Labtech) and the MIC was defined as the minimum concentration of compound where no visible growth was detected. The compounds were prepared as a DMSO stock and equivalent concentrations of DMSO had no effect on bacterial growth. MICs were also performed in the presence of the outer membrane permeator, polymyxin b nonapeptide (PMBN) following the same MIC method but with the following variation. The 2-fold dilution series of compound was prepared as above, then 50 μL of PMBN at a final concentration of 30 μg/mL was added to relevant wells, while 50 μL/well of blank media was added to the remaining wells. Bacteria were then added at 50 μL/well for a starting concentration as above. Thirty μg/mL of PMBN had no effect on bacterial growth. The MICs were read and defined as above. All animal procedures were performed by the contract research organization Pharmacology Discovery Services Taiwan in accordance with the Guide for the Care and Use of Laboratory Animals. The procedures were approved by the Institutional Ethics Committee of Pharmacology Discovery Services Taiwan, Ltd. (approval no. AB127662), in compliance with animal welfare legislation in Taiwan.

[6] = tested on: S. oralis, S. mutans, S. salivarius, S. sanguinis, and S. pyogenes; assay: MIC, extended Gram-positive panel (grouped species); type: cell-based, Streptococcus spp.
Description: as §1, with “Thirty μg/mL of PMBN had no effect on bacterial growth.” left out, “All animal procedures were performed by the contract research organization Pharmacology Discovery Services Taiwan in accordance with the Guide for the Care and Use of Laboratory Animals. The procedures were approved by the Institutional Ethics Committee of Pharmacology Discovery Services Taiwan, Ltd. (approval no. AB127662), in compliance with animal welfare legislation in Taiwan.” left out

[7] = tested on: Staphylococcus epidermidis, S. hemolyticus and S. saprophyticus; assay: as above; type: cell-based, Staphylococcus spp.
Description: as §1, with “Thirty μg/mL of PMBN had no effect on bacterial growth.” left out, “All animal procedures were performed by the contract research organization Pharmacology Discovery Services Taiwan in accordance with the Guide for the Care and Use of Laboratory Animals. The procedures were approved by the Institutional Ethics Committee of Pharmacology Discovery Services Taiwan, Ltd. (approval no. AB127662), in compliance with animal welfare legislation in Taiwan.” left out

[8] = tested on: S. epidermidis; assay: MIC (microbroth dilution); type: cell-based, Staphylococcus epidermidis; conditions: Staphylococcus epidermidis, read-out: MIC
Description: as §1, with “All bacterial assays were carried out in tryptic soy broth (TSB), except for Streptococcus spp. which were grown in cation-adjusted Mueller Hinton broth containing 2.5% lysed horse blood.” left out, “The compounds were prepared as a DMSO stock and equivalent concentrations of DMSO had no effect on bacterial growth.” left out, “Thirty μg/mL of PMBN had no effect on bacterial growth.” left out

[9] = tested on: Streptococcus mutans; assay: MIC (microbroth dilution); type: cell-based; conditions: ATCC25175, ATCC 25175
Method in brief: (§2)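 Overnight stationary-phase bacteria were back-diluted and tested by broth microdilution, Streptococcus spp. in cation-adjusted Mueller Hinton broth plus 2.5% lysed horse blood, other species in tryptic soy broth. Some wells also received polymyxin B nonapeptide at 30 μg/mL final. Growth checked visually with OD600; MIC = minimum concentration showing no growth.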

[10] = tested on: Staphylococcus saprophyticus; assay: MIC (microbroth dilution); type: cell-based; conditions: ATCC15305, ATCC 15305
Method in brief: as §2

[11] = tested on: Streptococcus salivarius; assay: MIC (microbroth dilution); type: cell-based; conditions: ATCC13419, ATCC 13419
Method in brief: as §2

[12] = tested on: Streptococcus sanguinis; assay: MIC (microbroth dilution); type: cell-based; conditions: ATCC10556, ATCC 10556
Method in brief: as §2

[13] = tested on: Streptococcus pneumoniae; assay: MIC (microbroth dilution); type: cell-based; conditions: for MIC: Streptococcus pneumoniae
Method in brief: as §2

[14] = tested on: Streptococcus oralis; assay: MIC (microbroth dilution); type: cell-based; conditions: ATCC9811, ATCC 9811
Method in brief: as §2

[15] = tested on: Streptococcus intermedius; assay: MIC (microbroth dilution); type: cell-based; conditions: ATCC29663, ATCC 29663
Method in brief: as §2

[16] = tested on: Enterococcus gallinarum; assay: MIC (microbroth dilution); type: cell-based; conditions: VanC (ATCC 49608)
Method in brief: as §2

[17] = reported values; cited from earlier work
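For Response (death/test) in this document: male ICR mice given oral doses under a stepwise escalation scheme to find the highest tolerated dose.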

## C[C@H]1COc2c(N3CC[C@@H](Nc4ncccn4)C3)c(F)cc3c(=O)c(C(=O)O)cn1c23 [Compound 46, (S)-9-Fluoro-3-methyl-7-oxo-10-((R)-3-(pyrimidin-2-ylamino)pyrrolidin-1-yl)-2,3-dihydro-7H-[1,4]oxazino[2,3,4-ij]quinoline-6-carboxylic acid]
[1]; 100 mg/kg
  Response (death/test): 0/3
[1]; 100 mg/kg, 24 h
  Response (death/test): 0/3
[1]; 100 mg/kg, 48 h
  Response (death/test): 0/3
[1]; 100 mg/kg, 72 h
  Response (death/test): 0/3
[1]; 200 mg/kg
  Response (death/test): 0/3
[1]; 400 mg/kg
  Response (death/test): 0/3
[2]
  inhibition at 10 µM: ≤ 13%
[3]
  time-kill profile: rapid bactericidal activity

## Cc1cc(C)nc(N[C@@H]2CCN(c3c(F)cc4c(=O)c(C(=O)O)cn5c4c3OC[C@@H]5C)C2)n1 [Compound 50, (S)-10-((R)-3-((4,6-Dimethylpyrimidin-2-yl)amino)pyrrolidin-1-yl)-9-fluoro-3-methyl-7-oxo-2,3-dihydro-7H-[1,4]oxazino[2,3,4-ij]quinoline-6-carboxylic acid]
[4]; ATCC29212, ATCC 29212, read-out: MIC
  MIC: 0.25 µg/mL (≈ 0.551 µM)
[4]; ATCC51299
  MIC: 0.125 µg/mL (≈ 0.276 µM)
[4]; ATCC51575, VanB (ATCC 51575), read-out: MIC
  MIC: 0.25 µg/mL (≈ 0.551 µM)
[4]; ATCC700802
  MIC: 0.125 µg/mL (≈ 0.276 µM)
[4]; CCUG47775, VanA (CCUG 47775), read-out: MIC
  MIC: 0.5 µg/mL (≈ 1.1 µM)
[4]; clinical isolates, Table S11B
  MIC range: 0.125 to 0.5 µg/mL
[5]
  MIC: 0.03 µg/mL (≈ 0.0662 µM)
[6]
  MIC range: 0.03 to 0.25 µg/mL
[7]
  MIC range: 0.03125 to 0.06 µg/mL
[8]; ATCC12228, ATCC 12228
  MIC: 0.03 µg/mL (≈ 0.0662 µM)
[8]; ATCC 51625 / MRSE, MRSE (ATCC 51625)
  MIC: 0.03 µg/mL (≈ 0.0662 µM)
[8]; NRS101
  MIC: 0.03 µg/mL (≈ 0.0662 µM)
[8]; GIS (NRS7)
  MIC: 0.5 µg/mL (≈ 1.1 µM)
[8]; GIS (NRS8)
  MIC: 1 µg/mL (≈ 2.21 µM)
[8]; GIS (NRS60)
  MIC: 0.06 µg/mL (≈ 0.132 µM)
[9]
  MIC: 0.03 µg/mL (≈ 0.0662 µM)
[10]
  MIC: 0.06 µg/mL (≈ 0.132 µM)
[11]
  MIC: 0.25 µg/mL (≈ 0.551 µM)
[12]
  MIC: 0.25 µg/mL (≈ 0.551 µM)
[13]; ATCC6301
  MIC: 0.125 µg/mL (≈ 0.276 µM)
[13]; ATCC49619
  MIC: 0.125 µg/mL (≈ 0.276 µM)
[13]; ATCC51916
  MIC: 0.125 µg/mL (≈ 0.276 µM)
[13]; ATCC700669, ST 23F (ATCC 700669), read-out: MIC
  MIC: 0.06 µg/mL (≈ 0.132 µM)
[13]; ATCC700673, MDR (ATCC 700673), read-out: MIC
  MIC: 0.06 µg/mL (≈ 0.132 µM)
[13]; ATCC700675, ATCC 700675, read-out: MIC
  MIC: 0.06 µg/mL (≈ 0.132 µM)
[13]; ATCC700676
  MIC: 0.125 µg/mL (≈ 0.276 µM)
[13]; ATCC 700677 / PRSP, PRSP (ATCC 700677), read-out: MIC
  MIC: 0.06 µg/mL (≈ 0.132 µM)
[13]; PRSP (TM532), read-out: MIC
  MIC: 0.06 µg/mL (≈ 0.132 µM)
[13]; including MDR and PRSP strains
  MIC range: 0.06 to 0.125 µg/mL
[14]
  MIC: 0.25 µg/mL (≈ 0.551 µM)
[15]
  MIC: 0.03 µg/mL (≈ 0.0662 µM)
[16]; Enterococcus gallinarum, ATCC 49608 / GALLINARUM, read-out: MIC
  MIC: 0.25 µg/mL (≈ 0.551 µM)
[16]
  MIC: 0.25 µg/mL (≈ 0.551 µM)

## C[C@H]1COc2c(N3CCN(C)CC3)c(F)cc3c(=O)c(C(=O)O)cn1c23 [Levofloxacin, (S)-9-Fluoro-3-methyl-10-(4-methylpiperazin-1-yl)-7-oxo-2,3-dihydro-7H-[1,4]oxazino[2,3,4-ij]quinoline-6-carboxylic acid, reference compound]
[17]
  plasma protein binding: 38%
